From patent US8772498B2, “Alkylamine-substituted dicyanopyridine and amino acid ester prodrugs thereof” (Bayer Intellectual Property GmbH, priority 2009, dated 2014) come the findings set out here.

Where a name gives a salt, the structure may show the parent alone.

A short description of series [1]: Determination of the solubility in 5% strength aqueous dextrose solution. Particulars: for solubility at 24 h: saline or isotonic, thermodynamic from solid, room temperature. It is filed as physicochemical. How it is done: B-8. Determination of Solubility, Stability and Liberation Behavior a) Determination of the Solubility:
The test substance is suspended in 5% strength aqueous dextrose solution. This suspension is shaken at room temperature for 24 h. After ultracentrifugation at 224 000 g for 30 min, the supernatant is diluted with DMSO and analyzed by HPLC. A two-point calibration plot of the test compound in DMSO is used for quantification.
Agilent 1100 with DAD (G1315A), quat. pump (G1311A), autosampler CTC HTS PAL, degasser (G1322A) and column thermostat (G1316A); column: Phenomenex Gemini C18, 5 μm, 50 mm×2 mm; temperature: 40° C.; eluent A: water/phosphoric acid pH 2; eluent B: acetonitrile; flow rate: 0.7 ml/min; gradient: 0-0.5 min 85% A, 15% B; ramp: 0.5-3 min 10% A, 90% B; 3-3.5 min 10% A, 90% B; ramp: 3.5-4 min 85% A, 15% B; 4-5 min 85% A, 15% B.
Agilent 1100 with DAD (G1315A), quat. pump (G1311A), autosampler CTC HTS PAL, degasser (G1322A) and column thermostat (G1316A); column: VDSoptilab Kromasil 100 C18, 3.5 μm, 60 mm×2.1 mm; temperature: 30° C.; eluent A: water+5 ml perchloric acid/I; eluent B: acetonitrile; flow rate: 0.75 ml/min; gradient: 0-0.5 min 98% A, 2% B; ramp: 0.5-4.5 min 10% A, 90% B; 4.5-6 min 10% A, 90% B; ramp: 6.5-6.7 min 98% A, 2% B; 6.7-7.5 min 98% A, 2% B.

Series [2] concerns the target T1, adenosine A1 receptor (Homo sapiens, UniProt P30542).
T1 construct: expressed in transfected cells; host or cells: CHO (Chinese Hamster Ovary)
T1 sequence (P30542 1-326): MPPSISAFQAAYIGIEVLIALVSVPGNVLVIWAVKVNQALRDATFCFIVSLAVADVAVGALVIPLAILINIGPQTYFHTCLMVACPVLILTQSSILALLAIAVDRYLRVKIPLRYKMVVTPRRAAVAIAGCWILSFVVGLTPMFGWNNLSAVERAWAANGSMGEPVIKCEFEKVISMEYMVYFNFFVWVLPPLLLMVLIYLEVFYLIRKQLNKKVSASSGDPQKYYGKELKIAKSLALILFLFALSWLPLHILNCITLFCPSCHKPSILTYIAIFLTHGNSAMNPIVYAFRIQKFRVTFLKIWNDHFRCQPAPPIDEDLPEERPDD
The series can be described thus: Indirect determination of adenosine agonism by gene expression (luciferase), A1 cells. It is filed as cell-based. Particulars: CHO cells, luciferase readout, 1 μM forskolin. The source says: (§1) B-1. Indirect Determination of the Adenosine Agonism by Way of Gene Expression
(§2) Cells of the CHO (Chinese Hamster Ovary) permanent cell line are transfected stably with the cDNA for the adenosine receptor subtypes A1, A2a and A2b. The adenosine A1 receptors are coupled to the adenylate cyclase by way of G, proteins, while the adenosine A2a and A2b receptors are coupled by way of Gs proteins. In correspondence with this, the formation of cAMP in the cell is inhibited or stimulated, respectively. After that, expression of the luciferase is modulated by way of a cAMP-dependent promoter. The luciferase test is optimized, with the aim of high sensitivity and reproducibility, low variance and good suitability for implementation on a robot system, by varying several test parameters, such as cell density, duration of the growth phase and the test incubation, forskolin concentration and medium composition. The following test protocol is used for pharmacologically characterizing cells and for the robot-assisted substance screening:
(§3) The stock cultures are grown, at 37° C. and under 5% CO2, in DMEM/F12 medium containing 10% FCS (fetal calf serum) and in each case split 1:10 after 2-3 days. The test cultures are seeded in 384-well plates with 2000 cells per well and grown at 37° C. for approx. 48 hours. The medium is then replaced with a physiological sodium chloride solution (130 mM sodium chloride, 5 mM potassium chloride, 2 mM calcium chloride, 20 mM HEPES, 1 mM magnesium chloride hexahydrate, 5 mM sodium bicarbonate, pH 7.4). The substances to be tested, which are dissolved in DMSO, are pipetted into the test cultures (maximum final concentration of DMSO in the test mixture: 0.5%) in a dilution series of from 5×10^−11 M to 3×10^−6 M (final concentration). 10 minutes later, forskolin is added to the A1 cells and all the cultures are subsequently incubated at 37° C. for four hours. After that, 35 μl of a solution which is composed of 50% lysis reagent (30 mM disodium hydrogenphosphate, 10% glycerol, 3% TritonX100, 25 mM TrisHCl, 2 mM dithiotreitol (DTT), pH 7.8) and 50% luciferase substrate solution (2.5 mM ATP, 0.5 mM luciferin, 0.1 mM coenzyme A, 10 mM tricine, 1.35 mM magnesium sulfate, 15 mM DTT, pH 7.8) are added to the test cultures, which are shaken for approx. 1 minute and the luciferase activity is measured using a camera system. The ECK values are determined, i.e., the concentrations at which 50% of the luciferase answer is inhibited in the case of the A1 cell, and, respectively, 50% of the maximum stimulation with the corresponding substance is achieved in the case of the A2b and A2a cells.
(§4) Table 1 below lists the ECK values of representative working examples for the receptor stimulation on adenosine A1, A2a and A2b receptor subtypes: […]

For series [3], the target named is T2, adenosine A2b receptor (Homo sapiens, UniProt P29275).
T2 construct: expressed in transfected cells; host or cells: CHO (Chinese Hamster Ovary)
T2 sequence (P29275 1-332): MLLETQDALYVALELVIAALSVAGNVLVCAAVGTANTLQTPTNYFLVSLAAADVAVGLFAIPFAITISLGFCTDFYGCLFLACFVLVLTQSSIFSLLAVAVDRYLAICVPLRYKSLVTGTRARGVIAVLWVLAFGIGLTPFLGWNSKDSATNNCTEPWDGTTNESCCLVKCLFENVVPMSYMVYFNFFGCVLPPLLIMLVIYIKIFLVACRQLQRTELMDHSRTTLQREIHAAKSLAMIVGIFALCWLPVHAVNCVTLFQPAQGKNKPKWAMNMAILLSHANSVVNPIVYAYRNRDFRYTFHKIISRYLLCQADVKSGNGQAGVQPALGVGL
Kind of series: Indirect determination of adenosine agonism by gene expression (luciferase), A2b cells. It is filed as cell-based. Particulars: CHO cells, luciferase readout.
From the text: as §1, §2, §3, §4

Series [4] is described as follows: Stability in buffer at various pH values. It is filed as physicochemical. As for the experimental part: b) Stability in Buffer at Various pH Values:
0.3 mg of the test substance is weighed into a 2 ml HPLC vial and 0.5 ml of acetonitrile or acetonitrile/DMSO (9:1) is added. The substance is dissolved by putting the sample vessel in an ultrasonic bath for about 10 seconds. Then 0.5 ml of the respective (buffer) solution is added, and the sample is again treated in the ultrasonic bath.
(Buffer) solutions employed:
pH 4: 1 liter of Millipore water is adjusted to pH 4.0 with 1 N hydrochloric acid;
pH 7.4: 90.0 g of sodium chloride, 13.61 g of potassium dihydrogen phosphate and 83.35 g of 1 N sodium hydroxide solution are made up to 1 liter with water; this solution is then further diluted 1:10 with Millipore water.
5 μl portions of the test solution are analyzed by HPLC for their content of unchanged test substance, and of active substance (A) produced, every hour over a period of 24 hours at 37° C. The percentage areas of the appropriate peaks are used for quantification.
HPLC method for Examples 41 and 44:
Agilent 1100 with DAD (G1315B), binary pump (G1312A), autosampler (G1329A), column oven (G1316A), thermostat (G1330B); column: Kromasil 100 C18, 250 mm×4 mm, 5 μm; column temperature: 30° C.; mobile phase A: water+5 ml of perchloric acid/liter, eluent B: acetonitrile; gradient: 0 min 90% A→5.0 min 40% A→18.0 min 10% A→19.0 min 10% A→21.0 min 90% A→23.0 min 90% A; flow rate: 2.0 ml/min; UV detection: 288 nm.
HPLC Method for Examples 50 and 59:
Agilent 1100 with DAD (G1315B), binary pump (G1312A), autosampler (G1329A), column oven (G1316A), thermostat (G1330B); column: Kromasil 100 C18, 125 mm×4 mm, 5 μm; column temperature: 30° C.; mobile phase A: water+5 ml of perchloric acid/liter, eluent B: acetonitrile; gradient: 0 min 90% A→5.0 min 60% A→7.0 min 60% A→10.0 min 10% A→12.0 min 10% A→14.0 min 90% A→16.0 min 90% A; flow rate: 2.0 ml/min; UV detection: 294 nm.
HPLC Method for Example 54:
Agilent 1100 with DAD (G1314A), binary pump (G1312A), autosampler (G1329A), column oven (G1316A), thermostat (G1330A); column: Kromasil 100 C18, 250 mm×4 mm, 5 μm; column temperature: 30° C.; mobile phase A: water+5 ml of perchloric acid/liter, eluent B: acetonitrile; gradient: 0 min 90% A→5.0 min 40% A→18.0 min 10% A→19.0 min 10% A→21.0 min 90% A→23.0 min 90% A; flow rate: 2.0 ml/min; UV detection: 288 nm.
The ratios of the peak areas (F) at the respective time points in relation to the peak areas at the starting time are shown in Table 2 for representative exemplary embodiments: […]

On to `CCCNc1nc(SCc2csc(-c3ccc(Cl)cc3)n2)c(C#N)c(-c2ccc(OCCO)cc2)c1C#N` [Example 12], for which the “Solubility of the active substance” value in series [1] (result in words) is on record as “below the detection limit”.
As usually defined, the EC50 is the concentration needed to bring the measured effect to its halfway point. High values mean a need for much substance, low ones an effect from little substance. Consider `N#Cc1c(SCc2csc(-c3ccc(Cl)cc3)n2)nc(N2CCOCC2)c(C#N)c1-c1ccc(OCCO)cc1` [Example 17, 2-({(2-(4-chlorophenyl)-1,3-thiazol-4-yl)methyl}sulfanyl)-4-(4-(2-hydroxyethoxy)phenyl)-6-(morpholin-4-yl)pyridine-3,5-dicarbonitrile], for which the EC50 is 0.0003 µM in series [2] and 0.055 µM in series [3].
`N#Cc1c(SCc2csc(-c3ccc(Cl)cc3)n2)nc(N2CCCC2)c(C#N)c1-c1ccc(OCCOC(=O)CCN)cc1` [Example 50, 2-{4-(2-({(2-(4-Chlorophenyl)-1,3-thiazol-4-yl)methyl}sulfanyl)-3,5-dicyano-6-(pyrrolidin-1-yl)pyridin-4-yl)phenoxy}ethyl beta-alaninate trifluoroacetate]: in series [4] (pH 4, 37° C.), the “% test substance after 4 h (F(t = 4 h) × 100/F(t = 0 h))” value (shortened to “% test substance after 4 h”) is reported as 99% and the “% test substance after 24 h (F(t = 24 h) × 100/F(t = 0 h))” value (from here on “% test substance after 24 h”) stood at 99%. In addition, in series [4] (pH 7.4, 37° C.), the “% test substance after 4 h” value stood at 94% and the “% test substance after 24 h” value is recorded as 78%.
Usually solubility stands for the dissolved amount per volume that the medium holds. The low end stands for little dissolved substance, the high end for much dissolved substance. In series [1], `CCCNc1nc(SCc2csc(-c3ccc(Cl)cc3)n2)c(C#N)c(-c2ccc(OCCOC(=O)[C@H](C)NC(=O)[C@H](C)N)cc2)c1C#N` [Example 51, 2-{4-(2-({(2-(4-Chlorophenyl)-1,3-thiazol-4-yl)methyl}sulfanyl)-3,5-dicyano-6-(propylamino)pyridin-4-yl)phenoxy}ethyl L-alanyl-L-alaninate trifluoroacetate] gave a solubility at 24 h of 0.54 mg/mL.
Same read-out and setting: to `CNc1nc(SCc2csc(-c3ccc(Cl)cc3)n2)c(C#N)c(-c2ccc(OCCOC(=O)[C@@H](N)CCCN)cc2)c1C#N` [Example 52, 2-{4-(2-({(2-(4-Chlorophenyl)-1,3-thiazol-4-yl)methyl}sulfanyl)-3,5-dicyano-6-(methylamino)pyridin-4-yl)phenoxy}ethyl L-ornithinate bis(trifluoroacetate)] belongs 0.28 mg/mL.
On to `CCCNc1nc(SCc2csc(-c3ccc(Cl)cc3)n2)c(C#N)c(-c2ccc(OCCOC(=O)[C@H](C)NC(=O)[C@@H](N)CCCCN)cc2)c1C#N` [Example 54, 2-{4-(2-({(2-(4-Chlorophenyl)-1,3-thiazol-4-yl)methyl}sulfanyl)-3,5-dicyano-6-(propylamino)pyridin-4-yl)phenoxy}ethyl L-lysyl-L-alaninate bis(trifluoroacetate)], for which, in series [4] (pH 4, 37° C.), the “% test substance after 4 h” value is listed as 98% and the “% test substance after 24 h” value is 97%. Besides, in series [4] (pH 7.4, 37° C.), the “% test substance after 4 h” value came to 29% and the “% test substance after 24 h” value is 0%. In series [1], the solubility at 24 h was determined as 0.64 mg/mL.
Consider `C[C@H](NC(=O)[C@@H](N)CCCN)C(=O)OCCOc1ccc(-c2c(C#N)c(SCc3csc(-c4ccc(Cl)cc4)n3)nc(N3CCCC3)c2C#N)cc1` [Example 58, 2-{4-(2-({(2-(4-Chlorophenyl)-1,3-thiazol-4-yl)methyl}sulfanyl)-3,5-dicyano-6-(pyrrolidin-1-yl)pyridin-4-yl)phenoxy}ethyl L-ornithyl-L-alaninate bis(trifluoroacetate)], for which the solubility at 24 h in series [1] was found to be 0.47 mg/mL.
Consider `N#Cc1c(SCc2csc(-c3ccc(Cl)cc3)n2)nc(N2CCCC2)c(C#N)c1-c1ccc(OCCOC(=O)[C@@H](N)CCCN)cc1` [Example 59, 2-{4-(2-({(2-(4-Chlorophenyl)-1,3-thiazol-4-yl)methyl}sulfanyl)-3,5-dicyano-6-(pyrrolidin-1-yl)pyridin-4-yl)phenoxy}ethyl L-ornithinate bis(trifluoroacetate)], for which the “% test substance after 4 h” value in series [4] (pH 4, 37° C.) amounted to 99%; in series [4] (pH 7.4, 37° C.) it was 0%. Further, the “% test substance after 24 h” value in series [4] (pH 4, 37° C.) turned out to be 95%; in series [4] (pH 7.4, 37° C.), 0%.
